Measurements as given in paper PMC12078333, “Pharmacokinetic evaluation and bioavailability of KPT-335 (Verdinexor) in cats” (Frontiers in Veterinary Science, 2025).

Tests used:
[1] = Solubility of KPT-335 (pH dependence, unpublished data); format: physicochemical
[2] = pKa (unpublished data); format: physicochemical; settings: weak base
[3] = dogs; cited from earlier work

O=C(/C=C\n1cnc(-c2cc(C(F)(F)F)cc(C(F)(F)F)c2)n1)NNc1ccccn1 [KPT-335]
aqueous solubility [1]: low aqueous solubility
lower solubility at pH 3.8 versus pH 1.5 ([1]; unpublished data): 50 fold
pKa [2]: 10.6
maximum safe dosage [3]: 1.75 mg/kg BW
